Measurements taken from publication PMC11794154, “Molecular basis for the diversification of lincosamide biosynthesis by pyridoxal phosphate-dependent enzymes” (Nature Chemistry, 2024).

Assays:
LmbF = biological target: T1, LmbF (Streptomyces lincolnensis, UniProt A9Y8R7); test: X-ray crystal structure, […] Å; type: binding; conditions: covalent; internal aldimine with Lys270
T1 construct: full-length gene in pET42b (NdeI/XhoI), C-terminal His8 tag, expressed in E. coli BLR(DE3)/pGro7; active site at dimer interface; catalytic Lys270
T1 sequence (A9Y8R7 entry or part of it): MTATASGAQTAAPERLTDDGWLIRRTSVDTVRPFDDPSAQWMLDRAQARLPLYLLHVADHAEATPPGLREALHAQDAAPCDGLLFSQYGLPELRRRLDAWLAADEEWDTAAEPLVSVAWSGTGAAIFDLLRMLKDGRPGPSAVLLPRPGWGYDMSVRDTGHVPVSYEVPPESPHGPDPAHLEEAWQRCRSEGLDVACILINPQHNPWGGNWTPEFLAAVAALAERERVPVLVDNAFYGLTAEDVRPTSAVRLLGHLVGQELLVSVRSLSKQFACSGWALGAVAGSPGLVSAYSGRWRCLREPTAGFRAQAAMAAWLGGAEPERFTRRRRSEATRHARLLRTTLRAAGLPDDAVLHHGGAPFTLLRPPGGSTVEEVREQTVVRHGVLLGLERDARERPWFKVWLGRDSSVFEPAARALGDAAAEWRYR

CcbF = biological target: T2, CcbF (Streptomyces caelestis, UniProt E9JES7); test: X-ray crystal structure, […] Å; type: binding; conditions: covalent; internal aldimine with Lys260
T2 construct: full-length gene in pET42b (NdeI/XhoI), C-terminal His8 tag, expressed in E. coli BLR(DE3)/pGro7; catalytic Lys260; printed ccbF forward primer is identical to the lmbF one (likely misprint)
T2 sequence (E9JES7 entry or part of it): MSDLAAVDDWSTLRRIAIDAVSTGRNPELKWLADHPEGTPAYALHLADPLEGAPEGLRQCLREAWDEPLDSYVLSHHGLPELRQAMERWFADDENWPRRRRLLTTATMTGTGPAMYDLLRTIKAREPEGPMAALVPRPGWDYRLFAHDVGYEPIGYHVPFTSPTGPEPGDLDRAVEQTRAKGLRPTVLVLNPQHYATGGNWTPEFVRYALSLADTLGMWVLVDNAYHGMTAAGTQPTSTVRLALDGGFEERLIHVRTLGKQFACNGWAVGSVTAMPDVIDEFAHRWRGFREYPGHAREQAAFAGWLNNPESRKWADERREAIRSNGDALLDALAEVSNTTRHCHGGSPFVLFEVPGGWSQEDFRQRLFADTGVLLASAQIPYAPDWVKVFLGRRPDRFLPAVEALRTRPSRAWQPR

## Cc1ncc(COP(=O)(O)O)c(C=O)c1O [PLP]
LmbF
  X-ray crystal structure, 1.7 Å: we solved the X-ray crystal structures of LmbF and CcbF with PLP
CcbF
  X-ray crystal structure, 1.8 Å: we solved the X-ray crystal structures of LmbF and CcbF with PLP
